Reference: patent US20210154170A1, “METHODS OF TREATING NEUROPATHIC PAIN” (Biogen MA Inc., priority 2018, published 2021)

Columns and labels:
healthy participants [1] = assay: Phase 1 cross-over study, ambulatory blood pressure monitoring (ABPM); assay type: in vivo, human; settings: one-sided 95% CI excluding effect ≥5 mmHg
[2] = test system: rat model of inflammation (mechanical hypersensitivity); assay type: in vivo
Protocol: For all doses, the C Trough is higher than efficacious doses in animal model of inflammation. […] FCA1, an oral dose of 1 mg/kg was the minimal effective dose in this model. TGN (trigeminal neuralgia), PLSR (painful lumbosacral radiculopathy).
In this model, inflammation was induced by intraplantar injection of Freud Complete Adjuvant.
Mechanical hypersensitivity was then assessed using weight bearing.

healthy subjects = assay: Phase 1 valproic acid interaction study, safety and tolerability
From the text: • To evaluate the safety and tolerability of BIIB074 when administered alone and when coadministered with the UGT inhibitor valproic acid. • The endpoints that relate to this objective are the incidence of adverse events (AEs) and serious adverse events (SAEs), and changes in clinical laboratory parameters, vital signs, 12-lead electrocardiograms (ECGs), and Columbia Suicide Severity Rating Scale (C-SSRS) assessments. • To evaluate the effect of the UGT inhibitor valproic acid on the PK of the M13, M14, and M16 metabolites of BIIB074. • The endpoints that relate to this objective are: Cmax, AUCinf, AUClast, Tmax, Tlast, t1/2, and metabolite to parent ratio in AUC (MRAUC) of the M13, M14, and M16 metabolites of BIIB074
1. A single oral dose of BIIB074 administered in the morning on Days 1 and 16 following an 8-hour fast. The Day 16 dose was coadministered with the morning dose of valproic acid. 2. Valproic acid 500 mg TID was administered on Days 8 through 22. The morning dose on Day 16 was coadministered with BIIB074 following an 8-hour fast. 3. Blood samples for BIIB074 and metabolite PK collected predose and through 168 hours postdose on Days 1 through 8 and Days 16 through 23. 4. Single blood samples collected on Days 13 through 15 prior to the morning dose of valproic acid only, in order to determine valproic acid trough levels.

healthy participants [3] = assay: Phase 1 ABPM study, safety (adverse events, ECG); assay type: in vivo, human
Protocol: This was a Phase 1, randomized, double-blind, placebo-controlled, repeat dose, 2-period cross-over study to investigate the effect of BIIB074 300-400 mg bid on ambulatory blood pressure (ABP) in healthy participants (FIG. 2). The study comprised: screening (to occur a maximum of 30 days before the first baseline assessment); two 36-day treatment periods, each preceded by a baseline visit and separated by a 7-day washout (to minimize possible carry over effects); and a follow-up period of 7-14 days after last dose. Prior to this study, no females had received BIIB074; for this reason, a single dose BIIB074 session at the dose level of 400 mg was also conducted in female participants one week prior to the period 1 baseline visit. Following this session, some participants were predicted to exceed the predefined PK limit (area under the plasma concentration-time curve [AUC] 97 μg·h/mL) when receiving 400 mg bid at steady state. Therefore, in the subsequent phases of the study, all female participants received a lower dose of 300 mg bid (males received 400 mg bid).
Safety was assessed through monitoring of adverse events (AEs), vital signs, electrocardiogram (ECG), and laboratory safety tests (including clinical chemistry).
The safety population was the primary analysis population for this study and included all participants who received one or more doses of BIIB074. The PK population was defined as participants in the safety population for whom a PK sample was obtained and analyzed.

rats = assay: Tyramine-induced hypertension; assay type: in vivo, rat; settings: data not shown
From the text: The 36 day treatment duration in this study was rationally designed to determine whether tolerance developed for any potential effects of BIIB074 on SBP or DBP, since BP effects resolved by day 28 in the earlier phase 1 trial. The data from this study show a slight trend towards a decrease in the BP difference between BIIB074 and placebo between day 4 and day 35, although differences were minimal at all time points. […] Thus, the body of evidence, encompassing clinical and preclinical studies, supports safety and minimal effects of BIIB074 on BP/cardiovascular parameters.

[4] = 400 mg single dose, females, N = 22
[5] = 300-400 mg bid repeat dosing, N = 54

With Cl.NC(=O)[C@@H]1CC[C@H](c2ccc(OCc3ccccc3F)cc2)N1 [Example 1, (5R)-5-(4-{[(2-Fluorophenyl)methyl]oxy}phenyl)-L-prolinamide hydrochloride] the “Non-inferiority to placebo, inpatient ABPM” value (healthy participants [1]) was “non-inferiority of BIIB074 compared with placebo was demonstrated”, the “Reversal of mechanical hypersensitivity” value ([2]; 5 mg/kg oral) was “fully reversed” and the “Human scaled equivalent total plasma exposure where robust efficacy was observed” value ([2]; rat, in vivo) was 786 ng/mL. The Abdominal pain (healthy subjects; human, in vivo) was 0 n (%), the Asthenia (healthy subjects; human, in vivo) was 0 n (%) and the Cardiac disorders (healthy subjects; human, in vivo) was 0 n (%). The Diarrhoea (healthy subjects; human, in vivo) was 0 n (%), the Dizziness (healthy subjects; human, in vivo) was 0 n (%) and the Dyspepsia (healthy subjects; human, in vivo) was 0 n (%). The “Events leading to drug withdrawal” value (healthy subjects; human, in vivo) was 0 n (%), the “Events leading to study withdrawal” value (healthy subjects; human, in vivo) was 0 n (%) and the Faeces soft (healthy subjects; human, in vivo) was 0 n (%). For the same compound, the Gastrointestinal disorders (healthy subjects; human, in vivo) was 1 (3.3) n (%), the “General disorders and administration site conditions” value (healthy subjects; human, in vivo) was 0 n (%) and the Glossodynia (healthy subjects; human, in vivo) was 1 (3.3) n (%). For the same compound, the Headache (healthy subjects; human, in vivo) was 1 (3.3) n (%), the Nausea (healthy subjects; human, in vivo) was 0 n (%) and the Nervous system disorders (healthy subjects; human, in vivo) was 1 (3.3) n (%). The Non-cardiac chest pain (healthy subjects; human, in vivo) was 0 n (%), the “Number of subjects with any event” value (healthy subjects; human, in vivo) was 2 (6.7) n (%) and the Pallor (healthy subjects; human, in vivo) was 0 n (%). The Palpitations (healthy subjects; human, in vivo) was 0 n (%), the Pruritus (healthy subjects; human, in vivo) was 0 n (%) and the Related event (healthy subjects; human, in vivo) was 0 n (%). For the same compound, the Related serious event (healthy subjects; human, in vivo) was 0 n (%), the Serious event (healthy subjects; human, in vivo) was 0 n (%) and the “Severity: Mild” value (healthy subjects; human, in vivo) was 2 (6.7) n (%). For the same compound, the “Severity: Moderate” value (healthy subjects; human, in vivo) was 0 n (%), the “Severity: Severe” value (healthy subjects; human, in vivo) was 0 n (%) and the “Skin and subcutaneous tissue disorders” value (healthy subjects; human, in vivo) was 0 n (%). The “TEAEs considered related to BIIB074” value (healthy subjects; human, in vivo) was “No TEAEs were considered related to BIIB074”, the Vascular disorders (healthy subjects; human, in vivo) was 0 n (%) and the Vomiting (healthy subjects; human, in vivo) was 0 n (%). For the same compound, the Safety conclusion (healthy subjects; in vivo) was “safe and well tolerated”, the Fatal event (healthy subjects; per treatment period) was 0 n (%) and the “Severity of all AEs” value (healthy participants [3]; 400 mg single dose in females) was “mild in nature”. The Diarrhoea (healthy participants [3]; [4]) was 0 n (%), the Dizziness (healthy participants [3]; [4]) was 5 (23) n (%) and the Fatigue (healthy participants [3]; [4]) was 0 n (%). For the same compound, the Headache (healthy participants [3]; [4]) was 6 (27) n (%), the “Hypersensitivity (allergy symptoms)” value (healthy participants [3]; [4]) was 0 n (%) and the Nasopharyngitis (healthy participants [3]; [4]) was 0 n (%). For the same compound, the Nausea (healthy participants [3]; [4]) was 3 (14) n (%), the Oropharyngeal pain (healthy participants [3]; [4]) was 0 n (%) and the Pain in extremity (healthy participants [3]; [4]) was 0 n (%). The “Participants with any AE” value (healthy participants [3]; [4]) was 12 (55) n (%), the Pyrexia (healthy participants [3]; [4]) was 0 n (%) and the Rash (healthy participants [3]; [4]) was 0 n (%). The Vomiting (healthy participants [3]; [4]) was 1 (5) n (%), the “AEs of moderate intensity” value (healthy participants [3]; 300-400 mg bid repeat dose) was 9 AEs and the “AEs of severe intensity” value (healthy participants [3]; 300-400 mg bid repeat dose) was 2 AEs. The Diarrhoea (healthy participants [3]; [5]) was 1 (2) n (%), the Dizziness (healthy participants [3]; [5]) was 6 (11) n (%) and the Fatigue (healthy participants [3]; [5]) was 2 (4) n (%). The “Hypersensitivity (allergy symptoms)” value (healthy participants [3]; [5]) was 2 (4) n (%), the Nasopharyngitis (healthy participants [3]; [5]) was 6 (11) n (%) and the Nausea (healthy participants [3]; [5]) was 4 (7) n (%). For the same compound, the Oropharyngeal pain (healthy participants [3]; [5]) was 2 (4) n (%), the Pain in extremity (healthy participants [3]; [5]) was 0 n (%) and the “Participants with any AE” value (healthy participants [3]; [5]) was 25 (46) n (%). For the same compound, the Pyrexia (healthy participants [3]; [5]) was 2 (4) n (%), the Rash (healthy participants [3]; [5]) was 1 (2) n (%) and the Vomiting (healthy participants [3]; [5]) was 3 (6) n (%). The Headache (healthy participants [3]; 300-400 mg bid repeat dosing, N = 54, listed as BIIB074, hydrochloride) was 11 (20) n (%), the Tolerability (healthy participants [3]; 300-400 mg bid, 36 days) was “well tolerated” and the ECG changes (healthy participants [3]; day 1-35) was “no clinically significant ECG changes”. For the same compound, the “Participants withdrawn due to AEs while on BIIB074” value (healthy participants [3]; of 60 enrolled) was 5 participants, the “Serious AEs” value (healthy participants [3]; whole study) was “No serious AEs” and the “Effects on tyramine-induced hypertension” value (rats) was “no effects”.
